Columns and labels:
Experiment in all cases: KAM-matrix competition in K562 lysate;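 on 0.001 uM KAM: median log10 fold change of treatment over DMSO control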;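 on 0.01 uM KAM: median log10 fold change of treatment over DMSO control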;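 on 0.1 uM KAM: median log10 fold change of treatment over DMSO control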;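 on 1 uM KAM: median log10 fold change of treatment over DMSO control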;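 on 10 uM KAM: median log10 fold change of treatment over DMSO control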
Assay type in all cases: binding
[1] = target: T1, CDK17 (Homo sapiens, UniProt Q00537);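 on 0.001 uM KAM: median log10 fold change of treatment over DMSO control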;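 on 0.01 uM KAM: median log10 fold change of treatment over DMSO control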;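 on 0.1 uM KAM: median log10 fold change of treatment over DMSO control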;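 on 1 uM KAM: median log10 fold change of treatment over DMSO control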;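 on 10 uM KAM: median log10 fold change of treatment over DMSO control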
T1 construct: endogenous in cells; host or cells: K562 cell lysate
Experimental: (§1) Supplement 12953_2017_125_MOESM1_ESM.zip/MS_Supp Info.xlsx, sheet "KAM" | column: 10 uM KAM; 1 uM KAM; 0.1 uM KAM; 0.01 uM KAM; 0.001 uM KAM; RB50

[2] = target: T2, EIF2AK4 (Homo sapiens, UniProt Q9P2K8);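 on 0.001 uM KAM: median log10 fold change of treatment over DMSO control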;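 on 0.01 uM KAM: median log10 fold change of treatment over DMSO control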;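 on 0.1 uM KAM: median log10 fold change of treatment over DMSO control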;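 on 1 uM KAM: median log10 fold change of treatment over DMSO control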;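 on 10 uM KAM: median log10 fold change of treatment over DMSO control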
T2 construct: endogenous in cells; host or cells: K562
T2 sequence (Q9P2K8 whole entry): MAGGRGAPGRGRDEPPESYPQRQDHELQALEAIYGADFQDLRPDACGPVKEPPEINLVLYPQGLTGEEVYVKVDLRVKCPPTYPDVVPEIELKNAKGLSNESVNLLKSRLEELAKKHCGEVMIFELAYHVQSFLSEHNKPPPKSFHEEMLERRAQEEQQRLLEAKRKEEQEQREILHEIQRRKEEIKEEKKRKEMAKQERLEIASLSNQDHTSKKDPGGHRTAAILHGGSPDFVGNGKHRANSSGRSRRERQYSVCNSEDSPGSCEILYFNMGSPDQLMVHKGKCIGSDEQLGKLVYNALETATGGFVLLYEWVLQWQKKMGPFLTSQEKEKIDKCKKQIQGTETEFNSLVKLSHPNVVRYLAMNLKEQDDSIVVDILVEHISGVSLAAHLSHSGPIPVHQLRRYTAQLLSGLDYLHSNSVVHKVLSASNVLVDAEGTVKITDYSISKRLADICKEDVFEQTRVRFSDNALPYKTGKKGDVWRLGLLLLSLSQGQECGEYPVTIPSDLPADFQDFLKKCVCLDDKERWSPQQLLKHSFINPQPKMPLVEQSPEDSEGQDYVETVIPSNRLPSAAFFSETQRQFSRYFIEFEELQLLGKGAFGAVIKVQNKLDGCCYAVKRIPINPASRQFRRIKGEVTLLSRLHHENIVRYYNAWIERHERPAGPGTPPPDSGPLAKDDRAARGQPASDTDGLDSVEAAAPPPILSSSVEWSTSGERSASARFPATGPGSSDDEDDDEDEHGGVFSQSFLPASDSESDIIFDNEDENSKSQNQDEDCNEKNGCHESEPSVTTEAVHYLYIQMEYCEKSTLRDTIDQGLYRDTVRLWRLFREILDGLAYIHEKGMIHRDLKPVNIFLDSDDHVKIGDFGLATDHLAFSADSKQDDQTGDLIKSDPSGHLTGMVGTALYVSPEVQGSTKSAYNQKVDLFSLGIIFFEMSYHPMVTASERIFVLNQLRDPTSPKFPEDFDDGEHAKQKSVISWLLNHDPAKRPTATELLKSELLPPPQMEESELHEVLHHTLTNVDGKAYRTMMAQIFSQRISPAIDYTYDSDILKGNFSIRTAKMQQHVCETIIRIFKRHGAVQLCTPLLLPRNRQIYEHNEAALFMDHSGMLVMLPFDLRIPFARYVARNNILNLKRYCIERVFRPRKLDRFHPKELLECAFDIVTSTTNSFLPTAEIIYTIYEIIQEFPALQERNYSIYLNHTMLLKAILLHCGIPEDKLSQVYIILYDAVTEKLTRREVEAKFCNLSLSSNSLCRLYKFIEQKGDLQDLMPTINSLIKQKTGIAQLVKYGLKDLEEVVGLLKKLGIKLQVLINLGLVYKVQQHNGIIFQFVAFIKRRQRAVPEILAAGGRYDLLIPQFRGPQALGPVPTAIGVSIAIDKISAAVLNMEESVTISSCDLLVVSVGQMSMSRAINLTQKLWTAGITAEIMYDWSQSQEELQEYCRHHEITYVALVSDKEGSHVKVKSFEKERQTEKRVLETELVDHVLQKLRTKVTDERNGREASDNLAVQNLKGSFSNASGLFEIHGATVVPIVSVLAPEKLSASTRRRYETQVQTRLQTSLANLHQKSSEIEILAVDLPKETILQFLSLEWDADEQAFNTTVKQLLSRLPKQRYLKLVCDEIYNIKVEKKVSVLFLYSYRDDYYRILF
Experimental: as §1

[3] = target: T3, MAP3K4 (Homo sapiens, UniProt Q9Y6R4);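 on 0.001 uM KAM: median log10 fold change of treatment over DMSO control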;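 on 0.01 uM KAM: median log10 fold change of treatment over DMSO control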;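 on 0.1 uM KAM: median log10 fold change of treatment over DMSO control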;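 on 1 uM KAM: median log10 fold change of treatment over DMSO control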;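 on 10 uM KAM: median log10 fold change of treatment over DMSO control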
T3 construct: endogenous in cells; host or cells: K562
Experimental: as §1

[4] = target: T4, MARK3 (Homo sapiens, UniProt P27448)
T4 construct: endogenous in cells; host or cells: K562
T4 sequence (P27448 whole entry): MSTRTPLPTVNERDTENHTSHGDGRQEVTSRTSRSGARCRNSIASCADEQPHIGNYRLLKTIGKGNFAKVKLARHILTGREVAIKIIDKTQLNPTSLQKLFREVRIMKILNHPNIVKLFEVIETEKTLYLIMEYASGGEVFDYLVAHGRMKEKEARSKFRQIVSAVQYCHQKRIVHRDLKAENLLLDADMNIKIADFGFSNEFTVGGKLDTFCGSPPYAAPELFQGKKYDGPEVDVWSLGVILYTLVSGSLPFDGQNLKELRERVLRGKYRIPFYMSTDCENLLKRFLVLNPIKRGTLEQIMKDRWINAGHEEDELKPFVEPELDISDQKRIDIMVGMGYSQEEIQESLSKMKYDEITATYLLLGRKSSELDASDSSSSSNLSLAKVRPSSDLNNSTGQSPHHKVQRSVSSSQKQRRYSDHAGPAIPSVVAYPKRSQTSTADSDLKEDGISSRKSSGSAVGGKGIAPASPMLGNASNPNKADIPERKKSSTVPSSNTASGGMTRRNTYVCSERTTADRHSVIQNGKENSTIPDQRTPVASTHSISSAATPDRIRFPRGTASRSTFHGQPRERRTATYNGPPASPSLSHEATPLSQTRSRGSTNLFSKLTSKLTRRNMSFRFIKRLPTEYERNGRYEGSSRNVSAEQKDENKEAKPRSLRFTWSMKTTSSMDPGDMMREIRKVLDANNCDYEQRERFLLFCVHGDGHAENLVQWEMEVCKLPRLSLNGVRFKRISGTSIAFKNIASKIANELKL
Experimental: as §1

[5] = target: T5, MELK (Homo sapiens, UniProt Q14680)
T5 construct: endogenous in cells; host or cells: K562
T5 sequence (Q14680 whole entry): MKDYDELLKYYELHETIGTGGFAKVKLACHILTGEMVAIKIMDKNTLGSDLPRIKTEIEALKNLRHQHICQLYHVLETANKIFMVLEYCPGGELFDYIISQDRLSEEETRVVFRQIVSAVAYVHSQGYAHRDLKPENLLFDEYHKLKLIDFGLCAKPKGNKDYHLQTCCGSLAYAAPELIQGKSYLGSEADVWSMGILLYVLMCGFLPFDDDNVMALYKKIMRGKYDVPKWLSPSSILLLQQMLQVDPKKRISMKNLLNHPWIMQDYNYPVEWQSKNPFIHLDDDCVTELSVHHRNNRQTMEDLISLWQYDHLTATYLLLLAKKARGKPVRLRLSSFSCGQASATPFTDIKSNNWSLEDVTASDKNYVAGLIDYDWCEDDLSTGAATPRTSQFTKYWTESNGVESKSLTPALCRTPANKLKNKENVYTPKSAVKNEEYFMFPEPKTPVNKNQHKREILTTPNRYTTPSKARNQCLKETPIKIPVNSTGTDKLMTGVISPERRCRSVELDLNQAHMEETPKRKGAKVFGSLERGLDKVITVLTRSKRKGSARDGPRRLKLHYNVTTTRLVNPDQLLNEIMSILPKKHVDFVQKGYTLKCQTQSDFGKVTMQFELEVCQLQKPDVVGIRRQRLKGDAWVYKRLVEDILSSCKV
Experimental: as §1

[6] = target: T6, RAF1 (Homo sapiens, UniProt P04049);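 on 0.001 uM KAM: median log10 fold change of treatment over DMSO control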;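 on 0.01 uM KAM: median log10 fold change of treatment over DMSO control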;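 on 0.1 uM KAM: median log10 fold change of treatment over DMSO control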;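 on 1 uM KAM: median log10 fold change of treatment over DMSO control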;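 on 10 uM KAM: median log10 fold change of treatment over DMSO control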
T6 construct: endogenous in cells; host or cells: K562
T6 sequence (P04049 whole entry): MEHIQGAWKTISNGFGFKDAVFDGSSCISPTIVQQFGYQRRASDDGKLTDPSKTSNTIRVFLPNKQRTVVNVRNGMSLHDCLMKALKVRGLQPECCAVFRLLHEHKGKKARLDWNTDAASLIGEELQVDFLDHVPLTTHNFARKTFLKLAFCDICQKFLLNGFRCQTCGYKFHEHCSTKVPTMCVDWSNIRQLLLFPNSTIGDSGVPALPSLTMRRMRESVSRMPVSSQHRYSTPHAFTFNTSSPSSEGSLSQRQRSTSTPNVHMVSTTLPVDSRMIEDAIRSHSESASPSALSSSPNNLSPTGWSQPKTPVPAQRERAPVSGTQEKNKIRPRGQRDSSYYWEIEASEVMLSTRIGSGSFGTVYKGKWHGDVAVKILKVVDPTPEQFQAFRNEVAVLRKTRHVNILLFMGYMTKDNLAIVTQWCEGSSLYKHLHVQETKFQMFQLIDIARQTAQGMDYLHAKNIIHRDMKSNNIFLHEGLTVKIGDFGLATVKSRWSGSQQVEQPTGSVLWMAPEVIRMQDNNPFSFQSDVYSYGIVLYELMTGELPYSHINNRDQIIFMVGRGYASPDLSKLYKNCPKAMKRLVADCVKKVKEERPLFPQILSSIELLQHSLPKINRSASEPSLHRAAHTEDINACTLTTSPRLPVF
Experimental: as §1

[7] = target: T7, RET (Homo sapiens, UniProt P07949)
T7 construct: endogenous in cells; host or cells: K562
Experimental: as §1

[8] = target: T8, SLK (Homo sapiens, UniProt Q9H2G2)
T8 construct: endogenous in cells; host or cells: K562
T8 sequence (Q9H2G2 whole entry): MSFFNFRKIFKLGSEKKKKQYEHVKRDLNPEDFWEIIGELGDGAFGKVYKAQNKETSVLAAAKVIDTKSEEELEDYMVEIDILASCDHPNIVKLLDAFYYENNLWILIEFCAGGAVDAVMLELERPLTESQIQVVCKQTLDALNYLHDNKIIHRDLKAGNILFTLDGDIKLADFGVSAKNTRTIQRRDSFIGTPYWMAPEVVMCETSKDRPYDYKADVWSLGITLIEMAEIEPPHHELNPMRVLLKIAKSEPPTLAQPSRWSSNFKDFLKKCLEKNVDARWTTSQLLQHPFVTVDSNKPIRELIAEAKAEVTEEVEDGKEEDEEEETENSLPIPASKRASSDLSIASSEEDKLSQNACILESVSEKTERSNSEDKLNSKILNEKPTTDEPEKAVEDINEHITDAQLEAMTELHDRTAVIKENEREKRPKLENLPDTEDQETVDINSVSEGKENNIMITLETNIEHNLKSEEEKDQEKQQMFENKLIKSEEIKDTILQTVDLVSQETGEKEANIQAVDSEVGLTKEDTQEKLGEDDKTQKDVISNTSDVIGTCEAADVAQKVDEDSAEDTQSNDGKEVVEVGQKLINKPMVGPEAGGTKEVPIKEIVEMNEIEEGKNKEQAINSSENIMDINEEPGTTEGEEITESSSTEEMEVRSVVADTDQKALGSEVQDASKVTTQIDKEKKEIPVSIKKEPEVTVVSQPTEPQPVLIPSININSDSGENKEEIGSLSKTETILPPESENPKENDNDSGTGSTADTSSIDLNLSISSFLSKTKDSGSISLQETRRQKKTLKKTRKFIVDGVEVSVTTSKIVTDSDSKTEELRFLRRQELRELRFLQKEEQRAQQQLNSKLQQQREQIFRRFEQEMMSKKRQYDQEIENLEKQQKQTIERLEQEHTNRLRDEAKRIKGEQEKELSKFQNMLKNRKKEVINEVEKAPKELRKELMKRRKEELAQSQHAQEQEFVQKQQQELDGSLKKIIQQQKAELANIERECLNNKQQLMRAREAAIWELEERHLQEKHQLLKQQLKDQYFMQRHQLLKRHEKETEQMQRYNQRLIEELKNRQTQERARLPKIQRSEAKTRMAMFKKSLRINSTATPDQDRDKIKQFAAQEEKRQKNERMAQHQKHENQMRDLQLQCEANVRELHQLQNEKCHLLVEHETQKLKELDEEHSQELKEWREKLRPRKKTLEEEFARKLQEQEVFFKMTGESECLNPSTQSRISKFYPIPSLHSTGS
Experimental: as §1

[9] = target: T9, TAOK3 (Homo sapiens, UniProt Q9H2K8)
T9 construct: endogenous in cells; host or cells: K562
T9 sequence (Q9H2K8 1-898): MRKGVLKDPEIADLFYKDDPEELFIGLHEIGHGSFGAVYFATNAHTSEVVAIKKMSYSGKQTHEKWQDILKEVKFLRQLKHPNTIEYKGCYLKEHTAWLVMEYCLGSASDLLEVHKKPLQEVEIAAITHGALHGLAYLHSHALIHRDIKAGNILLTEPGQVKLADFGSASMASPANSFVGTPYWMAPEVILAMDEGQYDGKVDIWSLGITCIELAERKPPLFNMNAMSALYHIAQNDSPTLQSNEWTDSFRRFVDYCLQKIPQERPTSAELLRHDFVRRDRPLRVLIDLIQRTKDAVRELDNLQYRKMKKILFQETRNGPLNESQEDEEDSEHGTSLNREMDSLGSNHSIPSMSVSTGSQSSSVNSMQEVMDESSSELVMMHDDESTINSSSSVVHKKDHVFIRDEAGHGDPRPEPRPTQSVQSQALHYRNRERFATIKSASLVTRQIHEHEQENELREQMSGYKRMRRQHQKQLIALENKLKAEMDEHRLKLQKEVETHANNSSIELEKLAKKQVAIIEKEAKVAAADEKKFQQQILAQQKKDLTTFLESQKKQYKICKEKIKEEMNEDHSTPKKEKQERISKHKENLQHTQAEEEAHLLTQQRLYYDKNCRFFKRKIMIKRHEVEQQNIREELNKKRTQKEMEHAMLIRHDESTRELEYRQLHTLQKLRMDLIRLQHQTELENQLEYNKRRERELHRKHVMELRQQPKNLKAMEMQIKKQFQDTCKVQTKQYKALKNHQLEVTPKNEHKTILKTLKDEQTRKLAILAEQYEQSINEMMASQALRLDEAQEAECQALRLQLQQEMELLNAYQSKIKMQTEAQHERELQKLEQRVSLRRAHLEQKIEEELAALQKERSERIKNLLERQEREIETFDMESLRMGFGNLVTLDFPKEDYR
Experimental: as §1

[10] = target: T10, ULK3 (Homo sapiens, UniProt Q6PHR2)
T10 construct: endogenous in cells; host or cells: K562 cell lysate
T10 sequence (Q6PHR2 1-472): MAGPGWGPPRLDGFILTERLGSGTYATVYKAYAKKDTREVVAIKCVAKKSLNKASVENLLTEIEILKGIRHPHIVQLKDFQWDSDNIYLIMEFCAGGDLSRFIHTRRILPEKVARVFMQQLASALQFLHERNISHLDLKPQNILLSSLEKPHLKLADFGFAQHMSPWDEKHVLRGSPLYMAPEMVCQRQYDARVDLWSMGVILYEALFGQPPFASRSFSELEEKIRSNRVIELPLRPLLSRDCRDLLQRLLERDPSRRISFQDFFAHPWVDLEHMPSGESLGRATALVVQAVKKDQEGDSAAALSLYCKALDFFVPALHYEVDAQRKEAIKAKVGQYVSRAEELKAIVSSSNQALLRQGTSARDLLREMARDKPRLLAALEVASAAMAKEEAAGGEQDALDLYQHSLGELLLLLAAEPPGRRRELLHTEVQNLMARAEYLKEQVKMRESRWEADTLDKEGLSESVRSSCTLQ
Experimental: as §1

[11] = KAM 0.001-10 uM, read-out: RB50 (the source's name)
[12] = read-out: RB50 (the source's name)

## N#CCc1ccc(Nc2nc(NCCCN)cc(Nc3cc(C4CC4)[nH]n3)n2)cc1 [KAM]
[1]; [11]
  IC50: > 10000 nM
[1]; relative to 0 uM KAM = 0
  0.001 uM KAM: -0.02399
  0.01 uM KAM: -0.01557
  0.1 uM KAM: -0.06864
  1 uM KAM: -0.1892
  10 uM KAM: -0.2802
[2]; [11]
  IC50: > 10000 nM
[2]; relative to 0 uM KAM = 0
  0.001 uM KAM: -0.0489
  0.01 uM KAM: 0.01964
  0.1 uM KAM: -0.07688
  1 uM KAM: -0.1098
  10 uM KAM: -0.203
[3]; [11]
  IC50: > 10000 nM
[3]; relative to 0 uM KAM = 0
  0.001 uM KAM: -0.03643
  0.01 uM KAM: -0.006572
  0.1 uM KAM: -0.06704
  1 uM KAM: -0.09539
  10 uM KAM: -0.1299
[4]; 0.001 uM KAM
  median Log10 fold change: -0.0002127
[4]; 0.01 uM KAM
  median Log10 fold change: -0.02099
[4]; 0.1 uM KAM
  median Log10 fold change: -0.2742
[4]; 1 uM KAM
  median Log10 fold change: -0.5652
[4]; 10 uM KAM
  median Log10 fold change: -0.6472
[4]; [12]
  IC50: 160 nM
[5]; 0.001 uM KAM
  median Log10 fold change: -0.02147
[5]; 0.01 uM KAM
  median Log10 fold change: 0.005817
[5]; 0.1 uM KAM
  median Log10 fold change: -0.06915
[5]; 1 uM KAM
  median Log10 fold change: -0.3528
[5]; 10 uM KAM
  median Log10 fold change: -0.5701
[5]; [12]
  IC50: 940 nM
[6]; [11]
  IC50: > 10000 nM
[6]; relative to 0 uM KAM = 0
  0.001 uM KAM: 0.02436
  0.01 uM KAM: -0.01322
  0.1 uM KAM: -0.08739
  1 uM KAM: -0.1339
  10 uM KAM: -0.1871
[7]; 0.001 uM KAM
  median Log10 fold change: -0.129
[7]; 0.01 uM KAM
  median Log10 fold change: -0.007083
[7]; 0.1 uM KAM
  median Log10 fold change: -0.09548
[7]; 1 uM KAM
  median Log10 fold change: -0.3474
[7]; 10 uM KAM
  median Log10 fold change: -0.5381
[7]; [12]
  IC50: 908 nM
[8]; 0.001 uM KAM
  median Log10 fold change: 0.008335
[8]; 0.01 uM KAM
  median Log10 fold change: -0.005793
[8]; 0.1 uM KAM
  median Log10 fold change: -0.3118
[8]; 1 uM KAM
  median Log10 fold change: -0.5551
[8]; 10 uM KAM
  median Log10 fold change: -0.6917
[8]; [12]
  IC50: 139 nM
[9]; 0.001 uM KAM
  median Log10 fold change: -0.0153
[9]; 0.01 uM KAM
  median Log10 fold change: 0.005812
[9]; 0.1 uM KAM
  median Log10 fold change: -0.1317
[9]; 1 uM KAM
  median Log10 fold change: -0.2502
[9]; 10 uM KAM
  median Log10 fold change: -0.3407
[9]; [12]
  IC50: 2690 nM
[10]; 0.001 uM KAM
  median Log10 fold change: 0.008102
[10]; 0.01 uM KAM
  median Log10 fold change: 0.009404
[10]; 0.1 uM KAM
  median Log10 fold change: -0.1871
[10]; 1 uM KAM
  median Log10 fold change: -0.4491
[10]; 10 uM KAM
  median Log10 fold change: -0.5442
[10]; [12]
  IC50: 405 nM
